Results on 55 compounds are retold here after patent publication US7652020B2, “Compounds for the treatment of inflammatory disorders” (Schering Corporation, priority 2004, dated 2010).

Read-outs that look alike come from different tables or passages of the source.

The target in this assay is T1, purified catalytic domain of recombinant human TACE (rhTACEc) (Homo sapiens, UniProt P78536, N452Q/S266A).
T1 construct: Residue 215 to 477 with two mutation (S266A and N452Q) and a 6×His tail; 6xHis (C); made in house; host or cells: baculovirus/Hi5 insect cells
In words: TACE kinetic assay: cleavage of internally quenched peptide substrate SPDL-3, fluorescence. It is filed as biochemical. To be noted: read-out: Ki. The method, then:
TACE activity is determined by a kinetic assay measuring the rate of increase in fluorescent intensity generated by TACE catalyzed cleavage of an internally quenched peptide substrate (SPDL-3). […] It is purified from the baculovirus/Hi5 cells expression system using affinity chromatography. […] MCA is (7-Methoxycoumarin-4-yl)acetyl. Dpa is N-3-(2,4-Dinitrophenyl)-L-2,3-diaminopropionyl.
A 50 μl assay mixture contains 20 mM HEPES, pH 7.3, 5 mM CaCl2, 100 μM ZnCl2, 2% DMSO, 0.04% Methylcellulose, 30 μM SPDL-3, 70 pM rhTACEc and a test compound. RhTACEc is pre-incubated with the testing compound for 90 min. at 25° C. Reaction is started by addition of the substrate. […] Rate of enzymatic reaction is shown as Units per second. Effect of a test compound is shown as % of TACE activity in the absence of the compound.

Setting [1] is: TACE inhibitory activity, class symbols.
Setting [2] is: TACE, representative compounds, numeric values.

T1 sequence (P78536 215-477 S266A/N452Q): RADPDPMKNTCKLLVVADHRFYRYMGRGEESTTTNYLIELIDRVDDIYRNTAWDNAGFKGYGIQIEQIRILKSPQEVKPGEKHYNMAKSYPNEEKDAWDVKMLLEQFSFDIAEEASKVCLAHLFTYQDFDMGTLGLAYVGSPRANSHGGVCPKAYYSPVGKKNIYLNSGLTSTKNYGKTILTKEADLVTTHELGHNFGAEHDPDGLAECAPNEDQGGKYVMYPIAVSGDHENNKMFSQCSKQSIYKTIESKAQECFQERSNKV

What is called Ki is a dissociation constant, usually derived from enzyme kinetics or from competition with a known ligand. As for `CNc1nc2c(s1)CN(C(=O)[C@H](O)[C@@H](O)C(=O)N[C@H](C)c1ccc(-n3cccn3)cc1)CC2` [Compound 2084], the Ki under setting [1] lay in the range of 20 to 100 nM.

With `CC(C)Nc1nc([C@H]2c3ccccc3CN2C(=O)[C@H](O)[C@@H](O)C(=O)N[C@H](C)c2ccc(-n3cccn3)cc2)cs1` [Compound 2592], under setting [1], the Ki is under 20 nM.

With `C[C@@H](NC(=O)[C@H](O)[C@@H](O)C(=O)N1CCc2ncncc2C1)c1ccc(-n2cccn2)cc1` [Compound 2079], the inhibition constant Ki under setting [1] fell in the range of 100 to 1000 nM.

For `O=C(NCc1ccc(-c2ccccc2OC(F)(F)F)cn1)[C@H](O)[C@@H](O)C(=O)N1CCCC1` [Compound 2350], under setting [1], the inhibition constant Ki was under 20 nM.

As to `CC#CCOc1cc([C@@H](C)NC(=O)[C@H](O)[C@@H](O)C(=O)N2CCC[C@@H]2c2cccc(Cl)c2)ccc1-n1cccn1` [drawing 1305], under setting [2], the Ki is 0.85 nM.

With `CNc1nc(C2c3ccccc3CN2C(=O)[C@H](O)[C@@H](O)C(=O)N[C@H](C)c2ccc(-n3cccn3)cc2)cs1` (stereo partly shown) [Compound 2445], the Ki under setting [1] was under 20 nM.

With `O=C(NCc1ccc(-c2ccc(F)cc2OCC(F)(F)F)cc1)[C@H](O)[C@@H](O)C(=O)N1CCCC1` [Compound 2337], under setting [1], the Ki lay within 20 to 100 nM.

In the case of `CCOc1cc(F)ccc1-c1ccc(CNC(=O)[C@H](OC)[C@@H](O)C(=O)N2Cc3cccnc3C2)cc1` [Compound 2477], under setting [1], the inhibitory constant (Ki) lay within 100 to 1000 nM.

`Cn1c([C@H](O)[C@@H](O)C(=O)NCC2CCN(c3ccc(F)cc3C#N)CC2)nc2ccccc21` [Compound 2394]: the inhibitory constant (Ki) under setting [1] is over 1000 nM.

On to `C[C@@H](NC(=O)[C@H](O)[C@@H](O)C(=O)N(C)C1Cc2ccccc2C1)c1ccc(-n2cccn2)cc1` [Compound 2489], for which the Ki under setting [1] is 20 to 100 nM.

As for `CCNc1nc([C@H]2C[C@@H](C)CN2C(=O)[C@H](O)[C@@H](O)C(=O)N[C@H](C)c2ccc(-n3cccn3)cc2)cs1` [Compound 2271], the Ki under setting [1] was under 20 nM.

Consider `C[C@@H](NC(=O)[C@H](O)[C@@H](O)C(=O)N1CCCC(C)(C)C1)c1ccc(-n2cccn2)cc1` [Compound 2412], for which the Ki under setting [1] is 100 to 1000 nM.

Consider `O=C([C@H](O)[C@@H](O)c1cncc(-c2ccc(-c3ccccc3)cc2)n1)N1Cc2ccccc2C1` [Compound 2403], for which the inhibition constant (Ki) under setting [1] was over 1000 nM.

In the case of `C[C@@H](NC(=O)[C@H](O)[C@@H](O)C(=O)N1CCn2cnnc2C1)c1ccc(-n2cccn2)cc1` [Compound 2080], the Ki under setting [1] lay in the range of 100 to 1000 nM.

Turning to `C[C@@H](NC(=O)[C@H](O)[C@@H](O)C(=O)N1CCC[C@@H]1c1csc(N)n1)c1ccc(-n2cccn2)cc1` [Compound 2255], under setting [1], the Ki is under 20 nM.

As for `C[C@H]1CN(c2ccccc2C#N)CCC1CNC(=O)[C@H](O)[C@@H](O)C(=O)N1CCC[C@@H]1c1ccccc1` (stereo partly shown) [Compound 2145], the inhibition constant Ki under setting [1] is 100 to 1000 nM.

Consider `C[C@H](c1ccc(-n2cccn2)cc1)N1CCO[C@H]([C@@H](O)C(=O)N2CCCC2c2ccccc2)C1=O` (stereo partly shown) [Compound 2478], for which the Ki under setting [1] was over 1000 nM.

Turning to `CCC(c1cccc(Cl)c1)N(C)C(=O)[C@H](O)[C@@H](O)C(=O)N[C@H](C)c1ccc(-n2cccn2)cc1` (stereo partly shown) [Compound 2487], the Ki under setting [1] was 20 to 100 nM.

On to `C[C@@H](NC(=O)[C@H](O)[C@@H](O)C(=O)N1CCc2nc(N)ncc2C1)c1ccc(-n2cccn2)cc1` [Compound 2075], for which, under setting [1], the Ki was 20 to 100 nM.

Turning to `Cc1nc2c(s1)CN(C(=O)[C@H](O)[C@@](C)(O)C(=O)N[C@H](C)c1ccc(-n3cccn3)cc1)C2` [Compound 2057], the Ki under setting [1] was under 20 nM.

In the case of `CCOc1ncccc1-c1ccc(CNC(=O)[C@H](O)[C@@H](O)C(=O)N2CCCC2)cc1` [Compound 2335], the inhibition constant Ki under setting [1] was in the range of 100 to 1000 nM.

Turning to `C[C@@H](NC(=O)[C@](C)(O)[C@@H](O)C(=O)N1Cc2cccnc2C1)c1ccc(-n2cccn2)c(OCC2CC2)c1` [Compound 2358], the inhibitory constant (Ki) under setting [1] is 100 to 1000 nM.

For `C[C@@H](NC(=O)[C@H](O)[C@@H](O)C(=O)N1CC(C)(C)CC1c1cccc(Cl)c1)c1ccc(-n2cccn2)cc1` (stereo partly shown) [Compound 2237], under setting [1], the inhibitory constant (Ki) was in the range of 100 to 1000 nM.

On to `COc1cc2c(cc1OC)C(c1ccccc1)N(C(=O)[C@H](O)[C@@H](O)C(=O)N[C@H](C)c1ccc(-n3cccn3)cc1)CC2` (stereo partly shown) [Compound 2442], for which the inhibition constant Ki under setting [1] was under 20 nM.

In the case of `Cc1cnc([C@H](O)[C@@H](O)C(=O)NCC2CCN(c3ccc(F)cc3C#N)CC2)n1C` [Compound 2400], the Ki under setting [1] was 100 to 1000 nM.

As for `CC(C)(NC(=O)[C@H](O)[C@@H](O)C(=O)N1CCCC1)C1CCN(c2ccc(F)cc2C#N)CC1` [Compound 2157], under setting [1], the Ki lay in the range of 20 to 100 nM.

Turning to `C[C@@H](NC(=O)[C@H](O)[C@@H](O)C(=O)N1CCc2cc(Cl)ccc2C1c1cc[nH]n1)c1ccc(-n2cccn2)cc1` (stereo partly shown) [Compound 2596], the Ki under setting [1] was under 20 nM.

Take `C[C@](O)(C(=O)NCC1CCN(c2ccc(F)cc2C#N)CC1)[C@@H](O)C(=O)N1Cc2cccnc2C1` [Compound 2034]: the Ki under setting [1] was in the range of 20 to 100 nM.

Regarding `C[C@@H](NC(=O)[C@H](O)[C@@H](O)C(=O)N1Cc2cccnc2C1)c1ccc(-c2cccc(OCCC3CCCCC3)c2)cc1` [Compound 2353B], under setting [1], the inhibition constant Ki lay within 20 to 100 nM.

For `C[C@@H](NC(=O)[C@H](O)[C@@H](O)C(=O)N1CC2CC1CN2c1ccc(Cl)cc1)c1ccc(-n2cccn2)cc1` (stereo partly shown) [Compound 2099], under setting [1], the inhibitory constant (Ki) is 100 to 1000 nM.

On to `NC[C@@H]1[C@H]2CN(C(=O)[C@H](O)[C@@H](O)C(=O)NCC3CCN(c4ccccc4OC(F)(F)F)CC3)C[C@@H]12` [Compound 2156], for which the Ki under setting [1] was in the range of 20 to 100 nM.

In the case of `CCNc1nc([C@H]2CCCN2C(=O)[C@H](O)[C@@H](O)C(=O)N[C@H](C)c2ccc(-n3cccn3)cc2)cs1` [Compound 2256], under setting [1], the Ki is under 20 nM.

Consider `CC(c1cccc(Cl)c1)N(C)C(=O)[C@H](O)[C@@H](O)C(=O)N[C@H](C)c1ccc(-n2cccn2)cc1` (stereo partly shown) [Compound 2480], for which the Ki under setting [1] was in the range of 20 to 100 nM.

Consider `C[C@@H](NC(=O)[C@H](O)[C@@H](O)C(=O)N1CCOCC1)c1ccc(-n2cccn2)cc1` [Compound 2422], for which the Ki under setting [1] was in the range of 20 to 100 nM.

As for `C[C@@H](NC(=O)[C@H](O)[C@@H](O)C(=O)N1CCC[C@@H]1c1ccn(-c2ccc(F)cc2)n1)c1ccc(-n2cccn2)cc1` [Compound 2599], the Ki under setting [1] was under 20 nM.

Turning to `C[C@@H](NC(=O)[C@H](O)[C@@H](O)C(=O)N1CCNCC1)c1ccc(-n2cccn2)cc1` [Compound 2423], the inhibition constant (Ki) under setting [1] was in the range of 100 to 1000 nM.

On to `O=C([C@H](O)[C@@H](O)c1cncc(N2CCN(c3ccccc3)CC2)n1)N1Cc2ccccc2C1` [Compound 2393], for which the inhibitory constant (Ki) under setting [1] was over 1000 nM.

With `CC#CCOc1cc([C@@H](C)NC(=O)[C@](C)(O)[C@@H](O)C(=O)N2Cc3cccnc3C2)ccc1-n1cccn1` [Compound 2360], the inhibition constant (Ki) under setting [1] is under 20 nM.

Turning to `CNc1nc([C@H]2C=CCN2C(=O)[C@H](O)[C@@H](O)C(=O)N[C@H](C)c2ccc(-n3cccn3)cc2)cs1` [Compound 2250], the Ki under setting [1] was under 20 nM.

With `CCOC(=O)c1cccn2cc([C@H]3CCCN3C(=O)[C@H](O)[C@@H](O)C(=O)N[C@H](C)c3ccc(-n4cccn4)cc3)nc12` [Compound 2508], under setting [1], the Ki was 20 to 100 nM.

On to `CCNc1nc(C2c3ccccc3CCN2C(=O)[C@H](O)[C@@H](O)C(=O)N[C@H](C)c2ccc(-n3cccn3)cc2)cs1` (stereo partly shown), for which the Ki under setting [2] is 0.3 nM.

Turning to `Cn1c(Cc2ccccc2)cnc1[C@H](O)[C@@H](O)C(=O)NCC1CCN(c2ccc(F)cc2C#N)CC1` [Compound 2365], the Ki under setting [1] fell in the range of 100 to 1000 nM.

For the compound `CNc1nccc([C@H]2CCCN2C(=O)[C@H](O)[C@@H](O)C(=O)N[C@H](C)c2ccc(-n3cccn3)cc2)n1` [Compound 2249], the inhibition constant (Ki) under setting [1] was under 20 nM.

Take `Cn1ccnc1[C@H](O)[C@@H](O)C(=O)NCc1ccc(-n2cccn2)cc1` [Compound 2397]: under setting [1], the Ki is over 1000 nM.

Consider `C[C@@H](NC(=O)[C@H](O)[C@@H](O)C(=O)N1CCCN1c1ccccc1)c1ccc(-n2cccn2)cc1` [Compound 2496], for which the inhibition constant (Ki) under setting [1] fell in the range of 100 to 1000 nM.

`C[C@@H](NC(=O)[C@H](O)[C@@H](O)C(=O)N1CCC[C@@H]1c1ccn(-c2ccccc2)n1)c1ccc(-n2cccn2)cc1` [Compound 2597]: the Ki under setting [1] is under 20 nM.

For `O=C(NCc1ccc(-c2ccccc2OC(F)(F)F)cn1)[C@H](O)[C@@H](O)c1ccccn1` [Compound 2398], under setting [1], the inhibition constant (Ki) was over 1000 nM.

As for `C[C@@H](NC(=O)[C@H](O)[C@@H](O)C(=O)N1CCCC1(C)c1csc(N)n1)c1ccc(-n2cccn2)cc1` (stereo partly shown) [Compound 2243], the inhibition constant (Ki) under setting [1] is under 20 nM.

`C[C@@H](NC(=O)[C@H](O)[C@@H](O)C(=O)N1CC(C)(C)CC1(C)c1cccc(Cl)c1)c1ccc(-n2cccn2)cc1` (stereo partly shown) [Compound 2238]: the Ki under setting [1] fell in the range of 20 to 100 nM.

Consider `CNc1nc([C@H]2CC(F)(F)CN2C(=O)[C@H](O)[C@@H](O)C(=O)N[C@H](C)c2ccc(-n3cccn3)cc2)cs1` [drawing 1327], for which the inhibition constant (Ki) under setting [2] stood at 3.9 nM.

For `C[C@@H](NC(=O)[C@H](O)[C@@H](O)C(=O)N1CC=C[C@@H]1c1cccc(Cl)c1)c1ccc(-n2cccn2)cc1` [Compound 2264], under setting [1], the inhibition constant Ki is under 20 nM.

On to `O=C(NCC1CCN(c2ccccc2OC(F)(F)F)CC1)[C@H](O)[C@@H](O)C(=O)N1Cc2ccncc2C1` [Compound 2040], for which the Ki under setting [1] is under 20 nM.

Regarding `C[C@@H]1CN(c2ccccc2C#N)CCC1CNC(=O)[C@H](O)[C@@H](O)C(=O)N1Cc2ccccc2C1` (stereo partly shown) [Compound 2143], the Ki under setting [1] was under 20 nM.

For `COc1cc2c(cc1OC)C(c1ccccc1)N(C(=O)[C@H](O)[C@@H](O)C(=O)N[C@H](C)c1ccc(-n3cccn3)cc1)CC2` (stereo partly shown) [drawing 1306], the inhibition constant (Ki) under setting [2] was 0.86 nM.

On to `N#Cc1cc(F)ccc1N1CCC(CNC(=O)[C@H](O)[C@@H](N)C(=O)N2CCCC2)CC1` [Compound 2456], for which the Ki under setting [1] was over 1000 nM.
